Blank lines part the entries; values can stand above or below the compound they belong to.
How the values were obtained:
solubility in water = assay type: physicochemical
[1] = pharmacokinetic assay in rats; assay type: in vivo, Sprague-Dawley (SD) rats; conditions: for AUC(0-t) / half-life / MRT inf / Cmax: single; for AUC(0-t): read-out: Area under curve AUC0-t; for half-life: read-out: Half life t1/2 (converted); for MRT inf: read-out: Resistance time MRT0-∞; for Cmax: read-out: Plasma concentration Cmax
Method: (§1) In the pharmacokinetic assay of the compound of Example 1 of the present invention, Sprague-Dawley (SD) rats were used as test animals. The compound of Example 1 was administrated intragastrically and intravenously to rats, then the drug concentration in the plasma at different time points was determined by a LC/MS/MS method to study the pharmacokinetic behavior and to evaluate the pharmacokinetic characteristics of the compound of the present invention in rats.

[2] = stability of crystal form I under lighting, heating and high humidity (purity by HPLC); assay type: physicochemical; conditions: for stability: spread flat in the air, lighting, high temperature and high humidity
Method: The sample of crystal form I prepared in Example 1 was spread flat in the air to test its stability under conditions of lighting (4500 Lux), heating (40° C., 60° C.), and high humidity (RH 75%, RH 90%). Samplings were carried out on Day 5 and Day 10.

[3] = special stability study of crystal form I (grinding, heating, pressing); assay type: physicochemical
Excerpt: Crystal form I of the compound of formula (I) prepared according to the method of Example 1 was ground, heated and pressed.

[4] = pharmacokinetic assay in dogs; assay type: in vivo, Beagle dogs; conditions: for AUC(0-t) / half-life / MRT inf / Cmax: single; for AUC(0-t): read-out: Area under curve AUC0-t; for half-life: read-out: Half life t1/2 (converted); for MRT inf: read-out: Resistance time MRT0-∞; for Cmax: read-out: Plasma concentration Cmax
Method: as §1, with “Beagle dogs” for “Sprague-Dawley (SD) rats”, “dogs,” for “rats,”, “dogs.” for “rats.”

[5] = Sprague-Dawley, rat, plasma, intravenous, 3 mg/kg
[6] = Sprague-Dawley, rat, plasma, po, intragastric, 3 mg/kg
[7] = Sprague-Dawley, rat, plasma, po, intragastric, 9 mg/kg
[8] = Sprague-Dawley, rat, plasma, po, intragastric, 27 mg/kg
[9] = Beagle, dog, plasma, intravenous, 3 mg/kg
[10] = Beagle, dog, plasma, po, intragastric, 3 mg/kg
[11] = Beagle, dog, plasma, po, intragastric, 9 mg/kg
[12] = beagle, dog, plasma, po, intragastric, 27 mg/kg

solubility in water (solubility in water): almost insoluble
SMILES: O=C(O)C1(Sc2ccnc3ccc(Br)cc23)CCC1 [1-((6-bromoquinolin-4-yl)thio)cyclobutane-1-carboxylic acid, reference compound]

oral absorption [1]: well absorbed | AUC(0-t) [1, 5]: 56000 ± 19600 ng·h/mL | half-life [1, 5]: 5.5 ± 1.88 h | MRT inf [1, 5]: 6.18 ± 1.33 h | AUC(0-t) [1, 6]: 41500 ± 27200 ng·h/mL | half-life [1, 6]: 4.58 ± 0.85 h | Cmax [1, 6]: 10500 ± 7900 ng/mL | MRT inf [1, 6]: 6.15 ± 1.51 h | AUC(0-t) [1, 7]: 119000 ± 65000 ng·h/mL | half-life [1, 7]: 5.07 ± 2.08 h | Cmax [1, 7]: 22000 ± 11000 ng/mL | MRT inf [1, 7]: 7.11 ± 1.75 h | AUC(0-t) [1, 8]: 336000 ± 241000 ng·h/mL | half-life [1, 8]: 4.59 ± 0.5 h | Cmax [1, 8]: 38800 ± 17000 ng/mL | MRT inf [1, 8]: 7.09 ± 1.33 h | bioavailability ([1]; Sprague-Dawley, rat, plasma, po, single intragastric 3 mg/kg, from mean AUC0-t, read-out: absolute bioavailability): 74.1% | solubility (solubility in water): 140 µg/mL | purity as detected by HPLC ([2]; 40° C., day 0): 99.76% | purity as detected by HPLC ([2]; 40° C., day 5): 99.73% | purity as detected by HPLC ([2]; 40° C., day 10): 99.73% | purity as detected by HPLC ([2]; 60° C., day 0): 99.76% | purity as detected by HPLC ([2]; 60° C., day 5): 99.73% | purity as detected by HPLC ([2]; 60° C., day 10): 99.71% | purity as detected by HPLC ([2]; Lighting (4500 Lux), day 0): 99.76% | purity as detected by HPLC ([2]; Lighting (4500 Lux), day 5): 99.75% | purity as detected by HPLC ([2]; Lighting (4500 Lux), day 10): 99.70% | purity as detected by HPLC ([2]; RH 75%, day 0): 99.76% | purity as detected by HPLC ([2]; RH 75%, day 5): 99.74% | purity as detected by HPLC ([2]; RH 75%, day 10): 99.74% | purity as detected by HPLC ([2]; RH 90%, day 0): 99.76% | purity as detected by HPLC ([2]; RH 90%, day 5): 99.74% | purity as detected by HPLC ([2]; RH 90%, day 10): 99.73% | stability ([2]; listed as crystal form I): good stability | stability ([2]; listed as crystal form I of the compound of formula (I)): stable | DSC peak after treatment ([3]; Grinding treatment for 10 minutes): >300 °C | DSC peak after treatment ([3]; Heating treatment for 3 hours at 80° C.): >300 °C | DSC peak after treatment ([3]; Pressing treatment): >300 °C | stability of the crystal form ([3]; grinding, heating and pressure): stable | oral absorption [4]: well absorbed | AUC(0-t) [4, 9]: 14500 ± 3600 ng·h/mL | half-life [4, 9]: 4.51 ± 2.25 h | MRT inf [4, 9]: 3.57 ± 1.89 h | AUC(0-t) [4, 10]: 8630 ± 3440 ng·h/mL | half-life [4, 10]: 3.49 ± 1.2 h | Cmax [4, 10]: 8450 ± 2100 ng/mL | MRT inf [4, 10]: 3.03 ± 1.03 h | AUC(0-t) [4, 11]: 37500 ± 10800 ng·h/mL | half-life [4, 11]: 3.83 ± 2 h | Cmax [4, 11]: 27600 ± 4800 ng/mL | MRT inf [4, 11]: 3.48 ± 1.36 h | AUC(0-t) [4, 12]: 105000 ± 30900 ng·h/mL | half-life [4, 12]: 4.31 ± 1.6 h | Cmax [4, 12]: 78600 ± 22000 ng/mL | MRT inf [4, 12]: 3.38 ± 0.96 h | bioavailability ([4]; beagle, dog, plasma, po, single intragastric 3 mg/kg, from mean AUC0-t, read-out: absolute bioavailability): 59.5%
SMILES: O=C([O-])C1(Sc2ccnc3ccc(Br)cc23)CCC1.[Na+] [Example 1, sodium 1-((6-bromoquinolin-4-yl)thio)cyclobutane-1-carboxylate]

— patent publication US10196361B2, “Sodium salt of uric acid transporter inhibitor and crystalline form thereof” (Jiangsu Hengrui Medicine Co., Ltd., priority 2015, dated 2019)
